Source: PubChem BioAssay AID504565 (NMMLSC, 2011)
pEC50: −log10 of the molar value.

Test system: Mouse 2C CD8+ T cell-vesicle binding, flow cytometry
Experiment: modulators of CD8 T cell-vesicle binding, dose response, powder samples, mouse 2C CD8+ cells (AID 504565)
[1] = CD8+ 90th percentile fluorescence
[2] = double positive events percentage

SMILES | pEC50 [1] | pEC50 [2]
CCOC(=O)C1CCCN(S(=O)(=O)c2ccc(F)c(C(=O)Nc3ccc(F)c(F)c3)c2)C1 (stereo unspecified) | 4.42 | 4.46
O=C(COC(=O)C12CC3CC(CC(Br)(C3)C1)C2)Nc1cccc(S(=O)(=O)N2CCOCC2)c1 | 5.08 | 5.49
COCc1c(C(=O)Nc2cccc(S(=O)(=O)N3CCCCC3)c2)oc2ccccc12 | 5.19 | 5.10
O=C(c1ccc(N2C(=O)C3CC=C(Cl)CC3C2=O)cc1)N1CCCCC1 (stereo unspecified) | 4.46 | 4.40
Cc1ccccc1C(=O)N1CCC(C(=O)Nc2ccc(C)c(S(=O)(=O)N3CCCCC3)c2)CC1 | 4.77 | 4.79
O=C(NCC1CCCCC1)c1ccc(Cl)c(S(=O)(=O)N2CCOCC2)c1 | 4.67 | 4.77
O=C(O)C1CCC(Cn2c(SCc3cc(=O)n4cc(Cl)ccc4n3)nc3ccsc3c2=O)CC1 (stereo unspecified) | 4.46 | 4.47
Cc1cc(Cl)c(OCCCSc2nc(C)cc(=O)[nH]2)c(Br)c1 | 4.65 | –
CCOC(=O)c1ccc(S(=O)(=O)N2CCN(C3CCCC3)CC2)cc1 | 4.85 | 4.98
COc1ccc(S(=O)(=O)N2CCCC2C(=O)Nc2ccc(C(C)=O)cc2)cc1 (stereo unspecified) | 4.68 | 4.69
CCOCC(=O)Nc1ccc(S(=O)(=O)N2CCC(c3nc4ccccc4[nH]3)CC2)cc1 | 6.22 | 6.20
CCOc1ccc(-c2nc(N)ncc2-c2ccccc2)c(O)c1 | 6.62 | –
CCN(CC)S(=O)(=O)c1ccc(Cl)c(NC(=O)COC(=O)C2CCCCC2)c1 | 4.41 | 4.42
CN(CC(=O)Nc1cc(S(=O)(=O)N2CCCC2)ccc1Cl)Cc1ccc2c(c1)OCO2 | 5.10 | 5.01
